Data taken from patent US7429571B2, “Therapeutic furopyrimidines and thienopyrimidines” (BioCryst Pharmaceuticals, Inc., priority 2004, dated 2008).

System: HCV
Conditions: patients, sole treatment; cited from earlier work

SMILES | effect on serum levels of HCV-RNA
NC(=O)c1ncn([C@@H]2O[C@H](CO)[C@@H](O)[C@H]2O)n1 [Ribavirin, 1-β-D-ribofuranosyl-1-1,2,4-triazole-3-carboxamide] | does not lower serum levels of HCV-RNA

Same assay, conditions: ribavirin alone; cited from earlier work

SMILES | patients in whom serum amino transferase levels are reduced to normal
NC(=O)c1ncn([C@@H]2O[C@H](CO)[C@@H](O)[C@H]2O)n1 [Ribavirin, 1-β-D-ribofuranosyl-1-1,2,4-triazole-3-carboxamide] | 40%

System: not given
Conditions: not given

SMILES | melting point
OC[C@H]1O[C@@H](c2coc3c(N4CCCC4)ncnc23)[C@H](O)[C@@H]1O | 198 °C
C[C@@]1(O)[C@H](O)[C@@H](CO)O[C@H]1c1coc2c(N(N)CCO)ncnc12 | 84 to 92 °C
CNc1ncnc2c([C@@H]3O[C@H](CO)[C@@H](O)[C@H]3O)coc12 | 88 to 100 °C
CCNc1ncnc2c([C@@H]3O[C@H](CO)[C@@H](O)[C@H]3O)coc12 | 76 to 88 °C
CC(C)Nc1ncnc2c([C@@H]3O[C@H](CO)[C@@H](O)[C@H]3O)coc12 | 58 to 80 °C
CN(C)c1ncnc2c([C@@H]3O[C@H](CO)[C@@H](O)[C@H]3O)coc12 | 210 °C
CCCNc1ncnc2c([C@@H]3O[C@H](CO)[C@@H](O)[C@H]3O)coc12 | 58 to 80 °C
COC(=O)C(NP(=O)(OC[C@H]1O[C@@H](c2coc3c(N)ncnc23)[C@](C)(O)[C@@H]1O)Oc1ccccc1)C(C)C (stereo in doubt) | 58 to 62 °C

Other lines, results leading:

melting point | SMILES
70 to 84 °C | CN(N)c1ncnc2c([C@@H]3O[C@H](CO)[C@@H](O)[C@@]3(C)O)coc12
80 to 84 °C | C[C@@]1(O)[C@H](O)[C@@H](CO)O[C@H]1c1coc2c(=O)[nH]c(N)nc12
88 to 100 °C | OC[C@H]1O[C@@H](c2coc3c(NC4CC4)ncnc23)[C@H](O)[C@@H]1O
192 °C | OC[C@H]1O[C@@H](c2coc3c(N4CCC4)ncnc23)[C@H](O)[C@@H]1O
